The species named for assay [1] is Homo sapiens. The experiment in a line: Selectivity ratio of Ki for human recombinant N-terminal His-tagged DTT-activated caspase-1 expressed in Escherichia coli to Ki for human recombinant DTT-activated caspase-5 expressed in Escherichia coli.
The species named for assay [2] is Homo sapiens. Description: Selectivity ratio of Ki for human recombinant N-terminal His-tagged DTT-activated caspase-4 expressed in Escherichia coli to Ki for human recombinant DTT-activated caspase-5 expressed in Escherichia coli.
In assay [3] the target is T1, Calpain-1 catalytic subunit (Homo sapiens) (UniProt P07384).
T1 sequence (whole entry): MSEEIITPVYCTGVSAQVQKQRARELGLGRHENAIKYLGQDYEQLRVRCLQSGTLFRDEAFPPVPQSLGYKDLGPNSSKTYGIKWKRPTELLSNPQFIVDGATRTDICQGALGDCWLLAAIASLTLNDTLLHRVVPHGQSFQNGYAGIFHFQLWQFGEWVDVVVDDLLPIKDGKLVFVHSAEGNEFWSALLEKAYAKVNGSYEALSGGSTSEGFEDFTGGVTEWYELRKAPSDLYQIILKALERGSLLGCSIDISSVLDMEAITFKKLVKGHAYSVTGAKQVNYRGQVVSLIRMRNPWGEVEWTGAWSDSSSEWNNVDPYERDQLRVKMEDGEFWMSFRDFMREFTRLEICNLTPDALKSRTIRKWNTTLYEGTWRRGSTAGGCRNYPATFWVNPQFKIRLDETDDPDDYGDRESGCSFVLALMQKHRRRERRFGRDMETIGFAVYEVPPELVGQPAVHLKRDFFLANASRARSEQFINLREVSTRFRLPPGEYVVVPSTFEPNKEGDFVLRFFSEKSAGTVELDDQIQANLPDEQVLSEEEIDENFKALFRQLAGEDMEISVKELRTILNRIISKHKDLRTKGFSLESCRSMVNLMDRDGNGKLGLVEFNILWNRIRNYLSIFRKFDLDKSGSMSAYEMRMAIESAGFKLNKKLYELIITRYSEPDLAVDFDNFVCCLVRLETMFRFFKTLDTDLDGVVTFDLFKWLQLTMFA
Description: Inhibition of full-length human calpain-1 at 5 uM preincubated for 10 mins followed by Suc-LLVY-AMC substrate addition by fluorescence assay relative to control.

The target of assay [4] is Cathepsin B (Homo sapiens) (UniProt P07858). Description: Inhibition of human recombinant cathepsin-B at 5 uM preincubated for 10 mins followed by Z-FR-AMC substrate addition by fluorescence assay.
Assay [5] addresses T2, Papain (Carica papaya) (UniProt P00784).
T2 sequence (whole entry): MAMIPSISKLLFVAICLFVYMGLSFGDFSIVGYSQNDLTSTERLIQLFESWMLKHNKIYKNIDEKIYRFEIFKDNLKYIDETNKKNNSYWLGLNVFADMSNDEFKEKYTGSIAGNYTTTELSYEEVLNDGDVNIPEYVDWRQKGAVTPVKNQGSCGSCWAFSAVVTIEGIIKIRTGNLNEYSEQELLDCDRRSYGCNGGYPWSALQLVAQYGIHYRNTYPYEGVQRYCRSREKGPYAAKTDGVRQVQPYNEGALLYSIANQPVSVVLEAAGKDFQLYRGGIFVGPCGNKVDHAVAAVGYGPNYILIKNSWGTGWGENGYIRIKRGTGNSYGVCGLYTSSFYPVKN
The experiment in a line: Inhibition of papaya papain at 5 uM preincubated for 10 mins followed by Suc-LLVY-AMC substrate addition by fluorescence assay relative to control.

Assay [6] has as its target T3, Cathepsin K (Homo sapiens) (UniProt P43235).
T3 sequence (whole entry): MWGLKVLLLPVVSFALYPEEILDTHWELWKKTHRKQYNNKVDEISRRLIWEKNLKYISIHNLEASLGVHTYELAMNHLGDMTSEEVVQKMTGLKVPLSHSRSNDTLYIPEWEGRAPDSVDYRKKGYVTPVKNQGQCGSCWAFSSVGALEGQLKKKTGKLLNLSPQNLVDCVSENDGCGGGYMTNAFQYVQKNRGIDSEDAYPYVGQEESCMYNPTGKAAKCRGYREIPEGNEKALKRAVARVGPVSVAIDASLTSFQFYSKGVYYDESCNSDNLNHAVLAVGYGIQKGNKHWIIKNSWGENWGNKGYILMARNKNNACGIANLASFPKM
The experiment in a line: Inhibition of human recombinant cathepsin-K assessed as residual activity at 5 uM preincubated for 10 mins followed by Z-FR-AMC substrate addition by fluorescence assay relative to control.

The target in assay [7] is T3, Cathepsin K (Homo sapiens). Description: Inhibition of human recombinant cathepsin-K at 5 uM preincubated for 10 mins followed by Z-FR-AMC substrate addition by fluorescence assay.
For assay [8], the species on record is Homo sapiens. The experiment in a line: Selectivity ratio of Ki for human recombinant DTT-activated caspase-5 expressed in Escherichia coli to Ki for human recombinant N-terminal His-tagged DTT-activated caspase-4 expressed in Escherichia coli.
The species named for assay [9] is Homo sapiens. The experiment in a line: Selectivity ratio of Ki for human recombinant N-terminal His-tagged DTT-activated caspase-1 expressed in Escherichia coli to Ki for human recombinant N-terminal His-tagged DTT-activated caspase-4 expressed in Escherichia coli.
For assay [10], the target named is T4, Caspase-1 (Homo sapiens) (UniProt P29466).
T4 sequence (whole entry): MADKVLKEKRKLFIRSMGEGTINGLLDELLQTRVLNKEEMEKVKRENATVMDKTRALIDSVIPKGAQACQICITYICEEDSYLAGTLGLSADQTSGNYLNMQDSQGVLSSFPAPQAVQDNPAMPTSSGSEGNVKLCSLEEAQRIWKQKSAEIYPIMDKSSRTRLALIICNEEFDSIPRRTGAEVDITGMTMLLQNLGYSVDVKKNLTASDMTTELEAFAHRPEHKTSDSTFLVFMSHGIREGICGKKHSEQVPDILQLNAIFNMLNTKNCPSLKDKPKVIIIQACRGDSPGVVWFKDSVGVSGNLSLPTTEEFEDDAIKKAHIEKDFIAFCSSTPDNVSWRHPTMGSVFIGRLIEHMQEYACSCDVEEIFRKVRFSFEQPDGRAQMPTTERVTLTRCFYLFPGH
The experiment in a line: Non-competitive inhibition of human recombinant N-terminal His-tagged DTT-activated caspase-1 expressed in Escherichia coli using 5 to 50 uM Ac-WEHD-AMC as substrate preincubated for 30 mins followed by substrate addition by Michaelis-Menten plot analysis.

Activity calls are given as the source filed them. No cut-off for these calls is given here.

On to `O=[N+]([O-])c1ccc(CN2CCN(c3cc(N4CCCC4)nc(N4CCCC4)n3)CC2)cc1`, for which the Ratio Ki in assay [1] and in assay [2] was 10 in each case.
Regarding `c1cc(CN2CCN(c3cc(N4CCCC4)nc(N4CCCC4)n3)CC2)ccn1`, the Ratio Ki in assay [1] and in [2] was 10 throughout.
`COc1cccc(CN2CCN(c3cc(N4CCCC4)nc(N4CCCC4)n3)CC2)c1`: the inhibition result in assay [3], in [4] and in [5] was “Active” each time. For the same compound, the Activity in [6] was 78%.
In the case of `c1cncc(CN2CCN(c3cc(N4CCCC4)nc(N4CCCC4)n3)CC2)c1`, the inhibition result in assay [7], in [3], in assay [4] and in assay [5] was “Active” throughout. The Ratio Ki in [1] and in assay [2] was 10 throughout.
Take `c1ccc(CCN2CCN(c3cc(N4CCCC4)nc(N4CCCC4)n3)CC2)cc1`: the inhibition entry in assay [7], in assay [3], in assay [4], in [5] and in [10] was “Active” in each case. The Ratio Ki in [8] and in assay [9] was 2 throughout.

These data come from ChEMBL document CHEMBL3864159, “Variation of the aryl substituent on the piperazine ring within the 4-(piperazin-1-yl)-2,6-di(pyrrolidin-1-yl)pyrimidine scaffold unveils potent, non-competitive inhibitors of the inflammatory caspases” (Bioorg Med Chem Lett, 2016).
